Legend:
[1] = Naproxen aldehyde solubility in acetone (visual cloud point / clear point); type: physicochemical
Source text: Solubility data for solids in acetone solvent were obtained by visually obtaining a "cloud" point for a solution of known composition by slowly cooling the solution. After obtaining a "cloud" point the solution was slowly heated until a "dear" point was observed. The "clear" point represents the saturation temperature of the solution and the "cloud" point the temperature at which massive spontaneous nucleation occurs.
Naproxen aldehydes [i.e., R- and S-2-(6-methoxy-2-naphthyl)propionaldehyde]are very soluble in acetone.

[2] = background, in words; cited from earlier work

solubility in acetone ([1]; in words)	temperature dependence of solubility ([1]; in words)	Cloud Point ([1]; solids 22.0 wt %, solids/liquid ratio 0.28, massive spontaneous nucleation temperature)	Clear Point ([1]; solids 22.0 wt %, solids/liquid ratio 0.28, saturation temperature)	Cloud Point ([1]; solids 29.0 wt %, solids/liquid ratio 0.41, massive spontaneous nucleation temperature)	Clear Point ([1]; solids 29.0 wt %, solids/liquid ratio 0.41, saturation temperature)	Cloud Point ([1]; solids 30.0 wt %, solids/liquid ratio 0.43, massive spontaneous nucleation temperature)	Clear Point ([1]; solids 30.0 wt %, solids/liquid ratio 0.43, saturation temperature)	Cloud Point ([1]; solids 35.3 wt %, solids/liquid ratio 0.55, massive spontaneous nucleation temperature)	Clear Point ([1]; solids 35.3 wt %, solids/liquid ratio 0.55, saturation temperature)	Cloud Point ([1]; solids 47.0 wt %, solids/liquid ratio 0.89, massive spontaneous nucleation temperature)	Clear Point ([1]; solids 47.0 wt %, solids/liquid ratio 0.89, saturation temperature)	SMILES	anti-arthritic activity [2]
very soluble	very sensitive to temperature	-15 °C	1 °C	-17 °C	6 °C	-6 °C	11 °C	-9 °C	15 °C	5 °C	25 °C	COc1ccc2cc(C(C)C=O)ccc2c1 (racemic) [Naproxen Aldehyde, R- and S-2-(6-methoxy-2-naphthyl)propionaldehyde]	
												COc1ccc2cc([C@H](C)C(=O)O)ccc2c1 [S enantiomer, S-2-(6-methoxy-2-naphthyl)propionic acid]	potent anti-arthritic agent

Reference: patent US5739385A, “Process for preparing optically active carboxylic acids” (Union Carbide Chemicals & Plastics Technology Corporation, priority 1995, dated 1998)
